These results are taken from US8835617B2, “Polynucleotides encoding a human TRIM-Cyp fusion polypeptide, compositions thereof, and methods of using same” (priority 2008, dated 2014).

Read-outs that look alike come from different tables or passages of the source.

The subject of assay [1] is HIV-1. As to conditions: quantitative PCR, Jurkat. How it is done: Since the objective was to engineer a fully human HIV-1 restriction factor, hCypA was the fused at 10 different positions along the length of hT5α (FIG. 44A).
Total cellular DNA was extracted from 2×10^6 Jurkat T cells using the DNeasy Blood and Tissue kit (Qiagen). qPCR was performed with the Applied Biosystems 7900HT system, using 250 ng total DNA and Taqman Gene Expression master mix (Applied Biosystems). Each experimental condition was performed in triplicate and data analyzed using the SDS software, version 2.2.2 (Applied Biosystems).

Assay [2] concerns HIV-1. The note with it: of CD45^+GFP^+ cells. The text has this: HIV-1 infection spreads from cell to cell at high titer in complex lymphoid tissues with a specific hierarchy of T cell destruction and distinct kinetics in vivo (Douek et al., 2003). […] This mouse model takes advantage of the lack of functional B, T, and NK cells in Rag2^−/−γc^−/− mice and allows for improved engraftment of xenografts as well de novo intrathymic generation of human T cells (Baenziger et al., 2008; Mazurier et al., 1999). Briefly, CD34^+ hematopoietic stem and progenitor cells are enriched from cord blood of healthy donors by MACS and transplanted intrahepatically into irradiated, newborn Rag2^−/−γc^−/− mice (FIG. 63A). 2-4 months post-transplant, reconstitution of peripheral blood is assessed by flow cytometry, and mice with more that 5% hCD45^+ cells in peripheral blood are infected intraperitoneally (i.p.) with HIV-1 (FIG. 63A).
An aliquot of cells was maintained in culture with the subsequent addition of SCF, TPO, and Flt3L, and assessed for GFP-expression 72 hours post-transduction.
huRag2^−/−γc^−/− mice were generated as previously described^1. Briefly, fresh human cord blood was obtained with parent written informed consent from healthy full-term newborns (Department of Gynecology and Obstetrics, Ospedale San Giovanni, Bellinzona). […] Traggiai, E., et al. Development of a human adaptive immune system in cord blood cell-transplanted mice. […]

In assay [3] the test system is HIV-1. The text has this:
CD4^+ T cells were enriched from PBMCs using MACS, and activated using irradiated allo-PBMC and IL-2. […] Cells were sorted based on GFP-expression and then challenged with replication-competent, CXCR4-tropic, HIV-1NL4-3. […] Cells were infected with HIV-1NL4-3, modified to be CCR5-tropic.
293T human embryonic kidney cells and CRFK feline kidney cells were maintained in DMEM supplemented with 10% fetal bovine serum (FBS) and glutamax (Invitrogen). […] CD4^+ T cells were enriched from PBMCs (>99% CD4^+) using positive selection magnetic beads (Miltenyi Biotec) and stimulated for 24 hrs on multisorb 96-well plates (Nunc) coated with 2 μg/ml anti-CD3 and 2 μg/ml anti-CD28 antibodies (BD Biosciences) in RPMI with 10% FBS, glutamax (Invitrogen) and 20 IU/ml hIL-2. When indicated and in preparation for adoptive transfer to mice, CD4^+ T cells were stimulated using allogeneic-PBMCs irradiated at 50 Gy in the presence of 20 IU/ml IL-2 and phytohemagglutinin (PHA) at 1 μg/ml. Cells were washed and replated 24 hrs prior to viral transduction. […]
2×10^4 adherent cells/well or 8×10^4 suspension cells/well were plated in 48-well plates (Nunc) for challenge with single-cycle GFP reporter vectors that were titered as indicated. GFP synthesis was assessed by flow cytometry 48 hrs post-infection. […] For infection of 10^6 primary CD4^+ T cells or macrophages, 15 ng p24/10^6 cells of a CXCR4- or CCR5-tropic HIV-1NL4-3 stock was used, and infection was monitored by assessing the accumulation of RT activity in the supernatant (Sayah et al., 2004). FACSCalibur, Cellquest Pro (Becton Dickinson), and FlowJo software (Treestar, Inc.) were used to record and analyze fluorescence. […]
CD4^+ T cells and monocyte-derived macrophages were infected with low passage derivatives of primary isolates HIV-1DH12 and HIV-1132W, respectively. […] Infection was monitored by assessing the accumulation of RT activity in the supernatant at the indicated day post-infection, at which point CD4^+ cells were split and macrophages were fed as required.

Consider “hT5Cyp: human TRIM5α fused at serine 322 to human cyclophilin A, SEQ ID NO:12”, for which the “accumulation of viral cDNA” value in the assay with HIV-1 [1] is on record as “blocked the accumulation of viral cDNA”. Moreover, the “Post-infection GFP^+ CD3” value in the assay on HIV-1 [2] was determined as 0%. The establishment of infection result is “infection is not established” with HIV-1 [3] (CCR5-tropic HIV-1NL4-3) and “infection was not established” in the assay on HIV-1 [3] (CXCR4-tropic HIV-1NL4-3). The block to infection result with HIV-1 [3] (primary isolate HIV-1DH12) is reported as “The same hT5Cyp-mediated block to infection”.
